In article PMC9917560, “Design, Synthesis and Antimicrobial Evaluation of New N-(1-Hydroxy-1,3-dihydrobenzo[c][1,2]oxaborol-6-yl)(hetero)aryl-2-carboxamides as Potential Inhibitors of Mycobacterial Leucyl-tRNA Synthetase” (International Journal of Molecular Sciences, 2023):
pIC50: −log10 of the molar value. Values after ≈ are worked out from the molar mass of the structure shown. Read-outs that look alike come from different tables or passages of the source.

How the values were obtained:
[1] = system: Candida krusei CCM 8271 (ATCC 6258); experiment: Antifungal microdilution broth (EUCAST); type: cell-based; conditions: Pichia kudriavzevii, read-out: MIC Candida krusei
[2] = system: Staphylococcus aureus subsp. aureus CCM 4223 (ATCC 29213); experiment: Antibacterial microdilution broth (EUCAST); type: cell-based; conditions: read-out: MIC Staphylococcus aureus subsp. aureus
[3] = system: Mycobacterium tuberculosis H37Ra ITM-M006710 (ATCC 9431); experiment: Antimycobacterial microdilution (resazurin) vs Mtb H37Ra; type: cell-based; conditions: Middlebrook 7H9, resazurin, recalculated from µg/mL, read-out: MIC Mtb H37Ra
[4] = system: Escherichia coli CCM 3954 (ATCC 25922); experiment: Antibacterial microdilution broth (EUCAST); type: cell-based; conditions: Escherichia coli, read-out: MIC Escherichia coli
[5] = system: Staphylococcus epidermidis CCM 4418 (ATCC 12228); experiment: Antibacterial microdilution broth (EUCAST); type: cell-based; conditions: read-out: MIC Staphylococcus epidermidis
[6] = system: Mycobacterium avium DSM 44,156 (ATCC 25291); experiment: Antimycobacterial microdilution (resazurin) vs M. avium; type: cell-based; conditions: Mycobacterium avium, Middlebrook 7H9, resazurin; read-out: MIC M. avium
[7] = system: Candida parapsilosis CCM 8260 (ATCC 22019); experiment: Antifungal microdilution broth (EUCAST); type: cell-based; conditions: Lodderomyces parapsilosis, read-out: MIC Candida parapsilosis
[8] = system: Acinetobacter baumannii DSM 30007 (ATCC 19606); experiment: Antibacterial microdilution broth (EUCAST); type: cell-based; conditions: read-out: MIC Acinetobacter baumannii
[9] = system: Lichtheimia corymbifera CCM 8077; experiment: Antifungal microdilution broth (EUCAST); type: cell-based; conditions: Lichtheimia corymbifera, read-out: MIC Lichtheimia corymbifera
[10] = system: Enterococcus faecalis CCM 4224 (ATCC 29212); experiment: Antibacterial microdilution broth (EUCAST); type: cell-based; conditions: read-out: MIC Enterococcus faecalis
[11] = system: Aspergillus flavus CCM 8363; experiment: Antifungal microdilution broth (EUCAST); type: cell-based; conditions: Aspergillus flavus, read-out: MIC Aspergillus flavus
[12] = system: Trichophyton interdigitale CCM 8377 (ATCC 9533); experiment: Antifungal microdilution broth (EUCAST); type: cell-based; conditions: Trichophyton interdigitale, read-out: MIC Trichophyton interdigitale
[13] = system: Aspergillus fumigatus ATCC 204305; experiment: Antifungal microdilution broth (EUCAST); type: cell-based; conditions: Aspergillus fumigatus, read-out: MIC Aspergillus fumigatus
[14] = system: Candida albicans CCM 8320 (ATCC 24433); experiment: Antifungal microdilution broth (EUCAST); type: cell-based; conditions: Candida albicans, read-out: MIC Candida albicans
[15] = system: Pseudomonas aeruginosa CCM 3955 (ATCC 27853); experiment: Antibacterial microdilution broth (EUCAST); type: cell-based; conditions: read-out: MIC Pseudomonas aeruginosa
[16] = system: Mycolicibacterium aurum DSM 43,999 (ATCC 23366); experiment: Antimycobacterial microdilution (resazurin) vs M. aurum; type: cell-based; conditions: Middlebrook 7H9, resazurin, read-out: MIC M. aurum
[17] = system: Candida tropicalis CCM 8264 (ATCC 750); experiment: Antifungal microdilution broth (EUCAST); type: cell-based; conditions: read-out: MIC Candida tropicalis
HepG2 cell line = experiment: Cytotoxicity screening, CellTiter 96 assay; conditions: for pIC50: Homo sapiens, HepG2, 24 h, read-out: IC50 HepG2
[18] = system: Mycobacterium tuberculosis H37Rv CNCTC My 331/88 (ATCC 27294); experiment: Microplate Alamar Blue assay vs Mtb H37Rv; type: cell-based; conditions: Mycobacterium tuberculosis, pH 6.6, MABA, Middlebrook 7H9 pH 6.6, recalculated from µg/mL; read-out: MIC Mtb H37Rv
[19] = system: Mycolicibacterium smegmatis DSM 43,465 (ATCC 607); experiment: Antimycobacterial microdilution (resazurin) vs M. smegmatis; type: cell-based; conditions: Middlebrook 7H9, resazurin, read-out: MIC M. smeg.
[20] = system: Mycobacterium kansasii DSM 44,162 (ATCC 12478); experiment: Antimycobacterial microdilution (resazurin) vs M. kansasii; type: cell-based; conditions: read-out: MIC M. kansasii
[21] = system: Klebsiella pneumoniae CCM 4415 (ATCC 10031); experiment: Antibacterial microdilution broth (EUCAST); type: cell-based; conditions: Klebsiella pneumoniae, read-out: MIC Klebsiella pneumoniae
[22] = system: methicillin-resistant Staphylococcus aureus subsp. aureus (MRSA) CCM 4750 (ATCC 43300); experiment: microbe, parasite or virus in culture; type: cell-based; conditions: read-out: MIC Methicillin-resistant Staphylococcus aureus subsp. aureus

SMILES: O=C(Nc1ccc2c(c1)B(O)OC2)c1cnc(O)cn1 [Compound 9, 5-hydroxy-N-(1-hydroxy-1,3-dihydrobenzo[c][1,2]oxaborol-6-yl)pyrazine-2-carboxamide]
- MIC ([1]; 24h incubation): > 500 µM
- MIC ([1]; 48h incubation): > 500 µM
- MIC ([2]; 24h incubation): > 500 µM
- MIC ([2]; 48h incubation): > 500 µM
- MIC [3]: 115 µM (≈ 31.3 µg/mL)
- MIC ([4]; 24h incubation): > 500 µM
- MIC ([4]; 48h incubation): > 500 µM
- melting point: 338.3 to 340.1 °C
- MIC ([5]; 24h incubation): > 500 µM
- MIC ([5]; 48h incubation): > 500 µM
- MIC [6]: 231 µM (≈ 62.5 µg/mL)
- MIC ([7]; 24h incubation): > 500 µM
- MIC ([7]; 48h incubation): > 500 µM
- MIC ([8]; 24h incubation): > 500 µM
- MIC ([8]; 48h incubation): > 500 µM
- MIC ([9]; CCM8077, 24h incubation): > 500 µM
- MIC ([9]; CCM8077, 48h incubation): > 500 µM
- MIC ([10]; 24h incubation): > 500 µM
- MIC ([10]; 48h incubation): > 500 µM
- MIC ([11]; CCM8363, 24h incubation): > 500 µM
- MIC ([11]; CCM8363, 48h incubation): > 500 µM
- MIC ([12]; 72h incubation): > 500 µM
- MIC ([12]; 120h incubation): > 500 µM
- MIC ([13]; ATCC204305, 24h incubation): > 500 µM
- MIC ([13]; ATCC204305, 48h incubation): > 500 µM
- MIC ([14]; 24h incubation): > 500 µM
- MIC ([14]; 48h incubation): > 500 µM
- MIC ([15]; 24h incubation): > 500 µM
- MIC ([15]; 48h incubation): > 500 µM
- MIC [16]: 231 µM (≈ 62.5 µg/mL)
- MIC ([17]; 24h incubation): > 500 µM
- MIC ([17]; 48h incubation): > 500 µM
- pIC50 (HepG2 cell line): < 3.00
- MIC [18]: 184 µM (≈ 50 µg/mL)
- MIC [19]: 57.6 µM (≈ 15.6 µg/mL)
- MIC [20]: 115 µM (≈ 31.3 µg/mL)
- MIC ([21]; 24h incubation): > 500 µM
- MIC ([21]; 48h incubation): > 500 µM
- MIC ([22]; 24 h): > 500 µM
- MIC ([22]; 48 h): > 500 µM

SMILES: O=C(Nc1ccc2c(c1)B(O)OC2)c1ccc(C(F)(F)F)cn1 [Compound 11, N-(1-hydroxy-1,3-dihydrobenzo[c][1,2]oxaborol-6-yl)-5-(trifluoromethyl)picolinamide]
- MIC ([1]; 24 h): > 125 µM
- MIC ([1]; 48 h): > 125 µM
- MIC ([2]; 24 h): > 125 µM
- MIC ([2]; 48 h): > 125 µM
- MIC [3]: 97 µM (≈ 31.2 µg/mL)
- MIC ([4]; 24 h): > 125 µM
- MIC ([4]; 48 h): > 125 µM
- melting point: 188.1 to 188.9 °C
- MIC ([5]; 24 h): > 125 µM
- MIC ([5]; 48 h): > 125 µM
- MIC [6]: 97 µM (≈ 31.2 µg/mL)
- MIC ([7]; 24 h): > 125 µM
- MIC ([7]; 48 h): > 125 µM
- MIC ([8]; 24 h): > 125 µM
- MIC ([8]; 48 h): > 125 µM
- MIC ([9]; CCM8077, 24 h): > 125 µM
- MIC ([9]; CCM8077, 48 h): > 125 µM
- MIC ([10]; 24 h): > 125 µM
- MIC ([10]; 48 h): > 125 µM
- MIC ([11]; CCM8363, 24 h): > 125 µM
- MIC ([11]; CCM8363, 48 h): > 125 µM
- MIC ([12]; 72 h): > 125 µM
- MIC ([12]; 120 h): > 125 µM
- MIC ([13]; ATCC204305, 24 h): > 125 µM
- MIC ([13]; ATCC204305, 48 h): > 125 µM
- MIC ([14]; 24 h): > 125 µM
- MIC ([14]; 48 h): > 125 µM
- MIC ([15]; 24 h): > 125 µM
- MIC ([15]; 48 h): > 125 µM
- MIC [16]: 24.2 µM (≈ 7.81 µg/mL)
- MIC ([17]; 24 h): > 125 µM
- MIC ([17]; 48 h): > 125 µM
- pIC50 (HepG2 cell line): < 4.00
- toxicity to HepG2 up to highest tested concentration (HepG2 cell line; tested up to 500 µM (2, 3), 250 µM (12, 17), 100 µM (6, 7, 11) because of solubility): non-toxic
- MIC [18]: 9.72 µM (≈ 3.13 µg/mL)
- MIC [19]: 24.2 µM (≈ 7.81 µg/mL)
- MIC ([20]; Middlebrook 7H9, resazurin): 12.1 µM (≈ 3.91 µg/mL)
- MIC ([21]; 24 h): > 125 µM
- MIC ([21]; 48 h): > 125 µM
- MIC ([22]; 24 h): > 125 µM
- MIC ([22]; 48 h): > 125 µM
